Test results as given in ChEMBL document CHEMBL3576837, “Targeted natural products discovery from marine cyanobacteria using combined phylogenetic and mass spectrometric evaluation” (2015).

What was measured:
Assay type in all cases: functional
HT-29 [1] = test: Cytotoxicity against human HT-29 cells assessed as cell viability at 0.32 nM incubated for 48 hrs by MTT assay; details: HT-29, 48 h, read-out: Activity
HT-29 [2] = test: Cytotoxicity against human HT-29 cells assessed as cell viability at 0.32 nM incubated for 48 hrs in presence of 4 nM largazole by MTT assay
HT-29 [3] = test: Cytotoxicity against human HT-29 cells assessed as cell viability at 4 nM incubated for 48 hrs in presence of 0.32 nM dolastatin 10 by MTT assay
HT-29 [4] = test: Cytotoxicity against human HT-29 cells assessed as cell viability at 4 nM incubated for 48 hrs by MTT assay; details: HT-29, 48 h, read-out: Activity

Work on `CC[C@H](C)[C@@H]([C@@H](CC(=O)N1CCC[C@H]1[C@H](OC)[C@@H](C)C(=O)N[C@@H](Cc1ccccc1)c1nccs1)OC)N(C)C(=O)[C@@H](NC(=O)[C@H](C(C)C)N(C)C)C(C)C` [DOLASTATIN-10] yielded a viability at 0.00032 µM (HT-29 [1]) of 80% and an Activity (HT-29 [2]) of 55%.
`CCCCCCCC(=O)SCC/C=C/[C@@H]1CC(=O)NCc2nc(cs2)C2=N[C@@](C)(CS2)C(=O)N[C@@H](C(C)C)C(=O)O1` [LARGAZOLE] was tested, and the Activity (HT-29 [3]) was 55% and the viability at 0.004 µM (HT-29 [4]) was 80%.
